Results from the kinase profiling compilation of Christmann-Franck et al. (2016).

Columns and labels:
Test in all cases: KINOMEscan competition binding
Conditions in all cases: compound 10.0 µM
[1] = biological target: BRAF (human) (UniProt P15056)
[2] = biological target: PIP4K2C (human) (UniProt Q8TBX8)
[3] = tested on: PIK3CA (human), P42336 [I800L]
[4] = biological target: BTK (human) (UniProt Q06187)
[5] = biological target: IRAK4 (human) (UniProt Q9NWZ3)
[6] = biological target: DYRK2 (human) (UniProt Q92630)
[7] = biological target: MAK (human) (UniProt P20794)
[8] = biological target: PRKCI (human) (UniProt P41743)
[9] = biological target: NIM1 (human) (UniProt Q8IY84)
[10] = biological target: CDK4 CCND1 (human) (UniProt P11802+P24385)
[11] = biological target: DDR1 (human) (UniProt Q08345)
[12] = biological target: TBK1 (human) (UniProt Q9UHD2)
[13] = tested on: KIT (human), P10721 [V559D/T670I]
[14] = tested on: PIK3CA (human), P42336 [Q546K]
[15] = biological target: SGK3 (human) (UniProt Q96BR1)
[16] = tested on: FLT3 (human), P36888 [K663Q]
[17] = biological target: PLK2 (human) (UniProt Q9NYY3)
[18] = biological target: STK32A (human) (UniProt Q8WU08)
[19] = biological target: RPS6KB1 (human) (UniProt P23443)
[20] = biological target: CRK2 (P.falciparum) (UniProt P61075)
[21] = biological target: NEK4 (human) (UniProt P51957)
[22] = biological target: CDK13 (human) (UniProt Q14004)
[23] = biological target: STK38 (human) (UniProt Q15208)
[24] = biological target: CDKL5 (human) (UniProt O76039)
[25] = tested on: PIK3CA (human), P42336 [H1047Y]
[26] = tested on: PIK3CA (human), P42336 [C420R]
[27] = biological target: DYRK1A (human) (UniProt Q13627)
[28] = biological target: GRK7 (human) (UniProt Q8WTQ7)
[29] = biological target: OXSR1 (human) (UniProt O95747)
[30] = biological target: SBK1 (human) (UniProt Q52WX2)
[31] = biological target: PKN3 (M.tuberculosis) (UniProt Q6P5Z2)
[32] = biological target: CDKL3 (human) (UniProt Q8IVW4)
[33] = biological target: MYLK3 (human) (UniProt Q32MK0)
[34] = biological target: MAP2K5 (human) (UniProt Q13163)
[35] = biological target: MAP3K15 (human) (UniProt Q6ZN16)
[36] = tested on: EGFR (human), P00533 [P753S; 747-752 del]
[37] = biological target: KIT (human) (UniProt P10721)
[38] = tested on: EGFR (human), P00533 [L861Q]
[39] = tested on: EGFR (human), P00533 [G719S]
[40] = tested on: EGFR (human), P00533 [746-750 del]

Chain of PLK2 (human) (Q9NYY3 whole entry, looked up): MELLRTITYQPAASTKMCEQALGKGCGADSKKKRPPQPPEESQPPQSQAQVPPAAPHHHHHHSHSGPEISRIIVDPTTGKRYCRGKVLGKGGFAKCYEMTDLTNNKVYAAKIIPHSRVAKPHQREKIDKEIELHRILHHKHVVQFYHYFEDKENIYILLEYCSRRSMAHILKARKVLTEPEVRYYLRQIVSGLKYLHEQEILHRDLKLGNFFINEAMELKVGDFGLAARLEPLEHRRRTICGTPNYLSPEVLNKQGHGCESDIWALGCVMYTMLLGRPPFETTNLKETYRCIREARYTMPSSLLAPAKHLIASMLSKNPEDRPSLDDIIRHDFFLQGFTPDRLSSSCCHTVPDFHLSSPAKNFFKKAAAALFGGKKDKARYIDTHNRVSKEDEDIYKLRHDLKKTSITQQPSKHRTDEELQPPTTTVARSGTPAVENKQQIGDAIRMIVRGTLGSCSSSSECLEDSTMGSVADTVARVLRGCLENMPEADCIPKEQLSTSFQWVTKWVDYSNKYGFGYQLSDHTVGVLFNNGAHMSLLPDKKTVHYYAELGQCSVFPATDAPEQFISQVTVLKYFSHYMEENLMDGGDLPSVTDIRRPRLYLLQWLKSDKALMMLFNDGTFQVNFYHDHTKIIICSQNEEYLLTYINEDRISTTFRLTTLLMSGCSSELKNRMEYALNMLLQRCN
Chain of PIP4K2C (human) (Q8TBX8 whole entry, looked up): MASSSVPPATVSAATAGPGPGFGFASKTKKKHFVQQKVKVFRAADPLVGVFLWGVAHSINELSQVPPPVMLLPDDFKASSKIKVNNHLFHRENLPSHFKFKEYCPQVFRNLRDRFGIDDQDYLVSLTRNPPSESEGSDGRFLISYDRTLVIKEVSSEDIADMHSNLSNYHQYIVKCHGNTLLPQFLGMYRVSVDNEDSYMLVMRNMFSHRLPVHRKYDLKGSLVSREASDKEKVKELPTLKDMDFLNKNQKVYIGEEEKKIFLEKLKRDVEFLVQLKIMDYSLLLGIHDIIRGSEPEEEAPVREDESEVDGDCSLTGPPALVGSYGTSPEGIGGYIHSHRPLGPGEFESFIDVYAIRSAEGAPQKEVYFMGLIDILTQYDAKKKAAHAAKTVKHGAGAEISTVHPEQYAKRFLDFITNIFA
Chain of OXSR1 (human) (O95747 whole entry, looked up): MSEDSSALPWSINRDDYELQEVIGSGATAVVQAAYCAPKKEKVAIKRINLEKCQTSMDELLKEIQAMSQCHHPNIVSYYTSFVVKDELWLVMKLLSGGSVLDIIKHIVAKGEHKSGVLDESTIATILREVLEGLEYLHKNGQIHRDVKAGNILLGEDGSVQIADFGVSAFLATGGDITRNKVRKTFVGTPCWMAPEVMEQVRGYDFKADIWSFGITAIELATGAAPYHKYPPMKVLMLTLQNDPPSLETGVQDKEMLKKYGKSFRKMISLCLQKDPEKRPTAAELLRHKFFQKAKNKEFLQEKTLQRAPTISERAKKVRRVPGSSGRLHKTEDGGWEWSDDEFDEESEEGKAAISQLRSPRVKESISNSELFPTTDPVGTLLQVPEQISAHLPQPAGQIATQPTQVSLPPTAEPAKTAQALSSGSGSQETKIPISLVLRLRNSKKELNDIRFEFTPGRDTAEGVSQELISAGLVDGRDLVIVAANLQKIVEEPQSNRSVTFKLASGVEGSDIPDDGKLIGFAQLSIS
Chain of BRAF (human) (P15056 whole entry, looked up): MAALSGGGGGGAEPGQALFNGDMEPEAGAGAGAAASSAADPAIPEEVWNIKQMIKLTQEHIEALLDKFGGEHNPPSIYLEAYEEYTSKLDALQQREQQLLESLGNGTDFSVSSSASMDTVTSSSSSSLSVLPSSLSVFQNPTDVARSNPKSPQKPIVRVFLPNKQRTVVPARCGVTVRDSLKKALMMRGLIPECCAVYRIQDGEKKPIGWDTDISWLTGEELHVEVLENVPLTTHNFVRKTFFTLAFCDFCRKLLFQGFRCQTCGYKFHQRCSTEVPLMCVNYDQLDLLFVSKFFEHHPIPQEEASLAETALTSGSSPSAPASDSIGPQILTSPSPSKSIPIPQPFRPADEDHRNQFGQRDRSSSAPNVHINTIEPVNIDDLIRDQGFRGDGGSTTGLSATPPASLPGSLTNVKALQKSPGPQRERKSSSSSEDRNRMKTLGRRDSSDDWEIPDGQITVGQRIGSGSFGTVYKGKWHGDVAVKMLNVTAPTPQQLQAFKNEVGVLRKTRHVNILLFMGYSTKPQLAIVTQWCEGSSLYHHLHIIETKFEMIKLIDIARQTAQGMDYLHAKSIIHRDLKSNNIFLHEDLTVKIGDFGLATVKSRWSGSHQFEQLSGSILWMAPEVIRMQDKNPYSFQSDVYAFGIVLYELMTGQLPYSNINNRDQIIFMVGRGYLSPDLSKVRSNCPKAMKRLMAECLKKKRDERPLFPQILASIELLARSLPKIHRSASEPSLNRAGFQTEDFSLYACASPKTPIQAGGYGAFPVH
Chain of CRK2 (P.falciparum) (P61075 whole entry, looked up): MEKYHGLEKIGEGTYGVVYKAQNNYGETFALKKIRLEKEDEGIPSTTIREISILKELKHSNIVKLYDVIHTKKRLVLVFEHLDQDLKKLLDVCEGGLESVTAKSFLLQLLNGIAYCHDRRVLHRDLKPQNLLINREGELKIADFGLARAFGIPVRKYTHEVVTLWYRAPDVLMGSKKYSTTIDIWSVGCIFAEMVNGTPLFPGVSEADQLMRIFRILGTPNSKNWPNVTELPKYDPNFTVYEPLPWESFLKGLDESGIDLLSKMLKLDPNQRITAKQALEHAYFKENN
Chain of CDK13 (human) (Q14004 whole entry, looked up): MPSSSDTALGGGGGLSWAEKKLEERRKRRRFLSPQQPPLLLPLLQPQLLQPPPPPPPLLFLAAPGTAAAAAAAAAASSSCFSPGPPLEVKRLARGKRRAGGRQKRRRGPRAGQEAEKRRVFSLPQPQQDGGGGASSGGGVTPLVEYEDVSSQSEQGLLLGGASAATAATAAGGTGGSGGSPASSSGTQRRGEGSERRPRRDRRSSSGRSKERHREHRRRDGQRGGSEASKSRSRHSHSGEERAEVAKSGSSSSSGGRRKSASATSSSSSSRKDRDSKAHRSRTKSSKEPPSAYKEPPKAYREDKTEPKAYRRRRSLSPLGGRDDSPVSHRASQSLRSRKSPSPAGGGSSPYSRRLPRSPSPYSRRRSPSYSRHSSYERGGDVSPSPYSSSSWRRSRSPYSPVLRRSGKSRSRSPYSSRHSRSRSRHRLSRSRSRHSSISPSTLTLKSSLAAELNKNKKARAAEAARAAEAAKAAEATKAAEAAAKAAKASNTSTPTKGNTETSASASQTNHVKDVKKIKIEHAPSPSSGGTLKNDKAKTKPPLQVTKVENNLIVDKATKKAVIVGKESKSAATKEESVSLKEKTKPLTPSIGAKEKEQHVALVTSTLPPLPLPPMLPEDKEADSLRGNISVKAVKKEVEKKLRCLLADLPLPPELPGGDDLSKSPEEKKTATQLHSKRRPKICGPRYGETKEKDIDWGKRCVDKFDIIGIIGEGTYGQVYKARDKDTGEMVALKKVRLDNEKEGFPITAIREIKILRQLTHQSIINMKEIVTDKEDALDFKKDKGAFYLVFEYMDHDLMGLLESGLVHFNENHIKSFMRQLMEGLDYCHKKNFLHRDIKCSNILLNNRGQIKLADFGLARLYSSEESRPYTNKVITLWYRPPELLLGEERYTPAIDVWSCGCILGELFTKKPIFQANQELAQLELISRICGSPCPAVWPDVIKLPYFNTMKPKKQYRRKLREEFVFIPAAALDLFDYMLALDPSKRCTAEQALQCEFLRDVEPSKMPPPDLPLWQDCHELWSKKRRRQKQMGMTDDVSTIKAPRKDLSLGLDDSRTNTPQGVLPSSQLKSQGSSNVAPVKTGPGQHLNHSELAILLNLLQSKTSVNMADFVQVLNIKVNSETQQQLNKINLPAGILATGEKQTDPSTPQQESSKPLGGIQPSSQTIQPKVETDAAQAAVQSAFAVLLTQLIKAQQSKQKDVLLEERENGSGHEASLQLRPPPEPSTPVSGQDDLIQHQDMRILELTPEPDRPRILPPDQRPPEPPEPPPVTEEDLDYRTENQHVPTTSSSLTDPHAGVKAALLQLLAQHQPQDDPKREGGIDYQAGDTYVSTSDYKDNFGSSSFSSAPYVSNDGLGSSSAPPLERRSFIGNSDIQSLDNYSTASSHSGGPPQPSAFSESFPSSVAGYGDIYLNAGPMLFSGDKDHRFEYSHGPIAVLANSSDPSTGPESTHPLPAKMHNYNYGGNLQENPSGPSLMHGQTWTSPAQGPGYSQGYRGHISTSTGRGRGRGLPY
Chain of CDK4 CCND1 (human) (P11802 whole entry, looked up): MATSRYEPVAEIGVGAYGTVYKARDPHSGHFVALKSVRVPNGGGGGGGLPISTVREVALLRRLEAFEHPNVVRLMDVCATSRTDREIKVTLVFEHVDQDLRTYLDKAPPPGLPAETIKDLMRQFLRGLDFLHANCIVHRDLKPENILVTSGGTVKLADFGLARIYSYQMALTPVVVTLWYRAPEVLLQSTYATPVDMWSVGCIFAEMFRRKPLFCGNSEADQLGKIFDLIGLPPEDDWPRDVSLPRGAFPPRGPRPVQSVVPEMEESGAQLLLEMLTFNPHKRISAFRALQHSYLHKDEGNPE
Chain of CDK4 CCND1 (human) (P24385 whole entry, looked up): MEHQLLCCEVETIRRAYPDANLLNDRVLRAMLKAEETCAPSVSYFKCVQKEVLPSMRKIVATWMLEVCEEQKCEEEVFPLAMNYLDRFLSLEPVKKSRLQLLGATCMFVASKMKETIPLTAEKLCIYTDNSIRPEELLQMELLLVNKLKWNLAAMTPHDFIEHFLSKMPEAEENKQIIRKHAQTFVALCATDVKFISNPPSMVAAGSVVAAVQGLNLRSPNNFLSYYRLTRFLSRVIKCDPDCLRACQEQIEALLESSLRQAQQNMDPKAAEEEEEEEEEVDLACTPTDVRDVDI

Compound	kinase still bound, per cent of control [1]	kinase still bound, per cent of control [2]	kinase still bound, per cent of control [4]	kinase still bound, per cent of control [5]	kinase still bound, per cent of control [6]	kinase still bound, per cent of control [7]	kinase still bound, per cent of control [8]	kinase still bound, per cent of control [9]	kinase still bound, per cent of control [10]	kinase still bound, per cent of control [12]	kinase still bound, per cent of control [15]	kinase still bound, per cent of control [17]	kinase still bound, per cent of control [18]	kinase still bound, per cent of control [19]	kinase still bound, per cent of control [20]	kinase still bound, per cent of control [21]	kinase still bound, per cent of control [22]	kinase still bound, per cent of control [23]	kinase still bound, per cent of control [24]	kinase still bound, per cent of control [27]	other results
N#Cc1c(NC(=O)c2cccc3ccccc23)sc2c1CCCC2	100%	100%	90%	100%	100%	56%	63%	100%	100%	88%	92%	100%	81%	90%	100%	76%	87%	100%	70%	100%	kinase still bound, per cent of control [3]: 98%; kinase still bound, per cent of control [11]: 71%; kinase still bound, per cent of control [13]: 78%; kinase still bound, per cent of control [14]: 79%; kinase still bound, per cent of control [16]: 93%; kinase still bound, per cent of control [25]: 100%; kinase still bound, per cent of control [26]: 92%; kinase still bound, per cent of control [28]: 88%; kinase still bound, per cent of control [29]: 100%; kinase still bound, per cent of control [30]: 100%; kinase still bound, per cent of control [31]: 100%; kinase still bound, per cent of control [32]: 82%; kinase still bound, per cent of control [33]: 100%; kinase still bound, per cent of control [34]: 100%; kinase still bound, per cent of control [35]: 100%
O=C(NOC[C@H](O)CO)c1ccc(F)c(F)c1Nc1ccc(I)cc1F	98%	100%	87%	100%	95%	100%	70%	100%	93%	85%	89%	100%	80%	100%	100%	78%	84%	100%	67%	100%	kinase still bound, per cent of control [3]: 33%; kinase still bound, per cent of control [36]: 59%; kinase still bound, per cent of control [11]: 50%; kinase still bound, per cent of control [13]: 90%; kinase still bound, per cent of control [37]: 92%; kinase still bound, per cent of control [14]: 41%; kinase still bound, per cent of control [25]: 57%; kinase still bound, per cent of control [26]: 50%; kinase still bound, per cent of control [28]: 100%; kinase still bound, per cent of control [29]: 100%; kinase still bound, per cent of control [30]: 100%; kinase still bound, per cent of control [31]: 91%; kinase still bound, per cent of control [32]: 98%; kinase still bound, per cent of control [34]: 86%; kinase still bound, per cent of control [35]: 100%
CCOc1cc2ncc(C#N)c(Nc3ccc(OCc4ccccn4)c(Cl)c3)c2cc1NC(=O)/C=C/CN(C)C	95%	100%	4.4%	96%	64%	100%	90%	90%	71%	100%	100%	85%	77%	100%	100%	100%	100%	81%	100%	99%	kinase still bound, per cent of control [37]: 80%; kinase still bound, per cent of control [14]: 100%; kinase still bound, per cent of control [28]: 100%; kinase still bound, per cent of control [29]: 54%; kinase still bound, per cent of control [30]: 100%; kinase still bound, per cent of control [31]: 100%; kinase still bound, per cent of control [32]: 100%; kinase still bound, per cent of control [33]: 86%; kinase still bound, per cent of control [34]: 1.8%; kinase still bound, per cent of control [35]: 100%
Cc1cc([C@@H](C)Nc2ccccc2C(=O)O)c2nc(N3CCOCC3)cc(=O)n2c1	100%	58%	97%	100%	89%	67%	100%	100%	100%	100%	86%	99%	89%	72%	98%	61%	88%	100%	74%	90%	kinase still bound, per cent of control [38]: 100%; kinase still bound, per cent of control [36]: 100%; kinase still bound, per cent of control [11]: 100%; kinase still bound, per cent of control [13]: 91%; kinase still bound, per cent of control [37]: 91%; kinase still bound, per cent of control [16]: 13%; kinase still bound, per cent of control [39]: 98%; kinase still bound, per cent of control [28]: 57%; kinase still bound, per cent of control [29]: 100%; kinase still bound, per cent of control [30]: 100%; kinase still bound, per cent of control [40]: 100%; kinase still bound, per cent of control [31]: 98%; kinase still bound, per cent of control [32]: 90%; kinase still bound, per cent of control [33]: 100%; kinase still bound, per cent of control [34]: 100%; kinase still bound, per cent of control [35]: 87%
